Test results from patent publication US8895004B2 (priority 2007, dated 2014).
Like-named read-outs stand apart in the source and are kept apart here.

Assays:
[1] = system: cells predominantly expressing presynaptic N-type calcium channels; format: cell-based, rat
[2] = system: hippocampal slice; assay: Spontaneous synaptic currents in acute hippocampal slice, CA1 pyramidal cells; format: cell-based; conditions: mouse slice
Protocol: 400 μm thick slices were prepared from freshly dissected hippocampi of the mouse using a method known per se (Dingledine R. Brain Slices. New York: Plenum Press, 1983).

[3] = system: cultured hippocampal neurons; format: cell-based, rat
[4] = system: GABAA receptors; format: cell-based, rat
[5] = target: T1, P/Q-type calcium channels (Rattus norvegicus, UniProt P54282); format: cell-based
T1 construct: Typical P/Q channel-mediated currents could be reliably elicited in somatic whole-cell recordings under our culture conditions; endogenous in cells; host or cells: cultured hippocampal neurons

[6] = system: L-type calcium currents; format: cell-based, rat
[7] = system: cultured hippocampal neurons; assay: sPSC frequency at 1 mM and 4 mM extracellular Ca2+ after Aβ(1-42) globulomer; format: cell-based
Protocol: Spontaneous synaptic activity was measured in cultured hippocampal neurons using whole-cell voltage clamp techniques (Vhold=−70 mV). Under the ionic conditions used (ECl˜−10 mV) all synaptic events appeared as inward currents.
Currents recorded prior to the addition of the globulomer served as control describing basal synaptic transmission. Currents recorded in the interval immediately after application were analysed with respect to the control data. Afterwards, extracellular Ca^2+ was elevated from 1 mM to 4 mM (leaving the concentration of globulomer unchanged). Currents in the following 5 min recording interval were again analysed with respect to control data.

[8] = system: cultured hippocampal neurons
[9] = system: hippocampal slice cultures; assay: Evoked synaptic transmission in hippocampal slice cultures after overnight incubation; conditions: globulomer approx. 1 μM monomer
[10] = globulomer, after elevation of Ca2+ to 4 mM

T1 sequence (Q8CFG6 19-1157): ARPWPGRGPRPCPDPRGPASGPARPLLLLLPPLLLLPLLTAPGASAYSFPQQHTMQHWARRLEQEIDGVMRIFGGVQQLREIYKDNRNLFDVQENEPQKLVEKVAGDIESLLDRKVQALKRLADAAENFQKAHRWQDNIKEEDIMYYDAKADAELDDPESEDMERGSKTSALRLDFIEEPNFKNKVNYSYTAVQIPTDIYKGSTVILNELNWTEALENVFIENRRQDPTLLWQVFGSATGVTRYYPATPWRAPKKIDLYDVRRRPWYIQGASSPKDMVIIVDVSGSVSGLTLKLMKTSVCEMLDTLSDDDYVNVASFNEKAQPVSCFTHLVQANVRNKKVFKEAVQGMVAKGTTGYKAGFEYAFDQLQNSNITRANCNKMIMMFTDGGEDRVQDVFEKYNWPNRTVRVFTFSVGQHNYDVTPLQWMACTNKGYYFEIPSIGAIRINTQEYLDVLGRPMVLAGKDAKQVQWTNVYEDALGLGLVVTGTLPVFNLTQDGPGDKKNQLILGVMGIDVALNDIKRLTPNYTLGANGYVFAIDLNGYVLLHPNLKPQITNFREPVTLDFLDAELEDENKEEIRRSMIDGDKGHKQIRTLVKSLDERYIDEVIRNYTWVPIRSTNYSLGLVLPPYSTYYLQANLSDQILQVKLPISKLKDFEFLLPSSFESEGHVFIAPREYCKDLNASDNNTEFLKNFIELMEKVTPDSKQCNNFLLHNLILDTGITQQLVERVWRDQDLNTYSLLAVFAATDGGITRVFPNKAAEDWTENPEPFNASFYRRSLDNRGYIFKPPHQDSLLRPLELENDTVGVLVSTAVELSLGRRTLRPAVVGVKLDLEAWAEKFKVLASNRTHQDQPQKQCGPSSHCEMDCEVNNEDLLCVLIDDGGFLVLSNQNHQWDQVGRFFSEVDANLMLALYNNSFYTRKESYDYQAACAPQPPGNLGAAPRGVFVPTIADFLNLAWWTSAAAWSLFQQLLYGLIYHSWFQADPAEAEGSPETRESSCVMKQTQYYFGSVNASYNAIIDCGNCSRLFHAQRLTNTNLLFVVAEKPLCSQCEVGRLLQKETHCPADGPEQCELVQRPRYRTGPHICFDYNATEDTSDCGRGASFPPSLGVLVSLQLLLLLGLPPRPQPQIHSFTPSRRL
T1 sequence (P54282 whole entry): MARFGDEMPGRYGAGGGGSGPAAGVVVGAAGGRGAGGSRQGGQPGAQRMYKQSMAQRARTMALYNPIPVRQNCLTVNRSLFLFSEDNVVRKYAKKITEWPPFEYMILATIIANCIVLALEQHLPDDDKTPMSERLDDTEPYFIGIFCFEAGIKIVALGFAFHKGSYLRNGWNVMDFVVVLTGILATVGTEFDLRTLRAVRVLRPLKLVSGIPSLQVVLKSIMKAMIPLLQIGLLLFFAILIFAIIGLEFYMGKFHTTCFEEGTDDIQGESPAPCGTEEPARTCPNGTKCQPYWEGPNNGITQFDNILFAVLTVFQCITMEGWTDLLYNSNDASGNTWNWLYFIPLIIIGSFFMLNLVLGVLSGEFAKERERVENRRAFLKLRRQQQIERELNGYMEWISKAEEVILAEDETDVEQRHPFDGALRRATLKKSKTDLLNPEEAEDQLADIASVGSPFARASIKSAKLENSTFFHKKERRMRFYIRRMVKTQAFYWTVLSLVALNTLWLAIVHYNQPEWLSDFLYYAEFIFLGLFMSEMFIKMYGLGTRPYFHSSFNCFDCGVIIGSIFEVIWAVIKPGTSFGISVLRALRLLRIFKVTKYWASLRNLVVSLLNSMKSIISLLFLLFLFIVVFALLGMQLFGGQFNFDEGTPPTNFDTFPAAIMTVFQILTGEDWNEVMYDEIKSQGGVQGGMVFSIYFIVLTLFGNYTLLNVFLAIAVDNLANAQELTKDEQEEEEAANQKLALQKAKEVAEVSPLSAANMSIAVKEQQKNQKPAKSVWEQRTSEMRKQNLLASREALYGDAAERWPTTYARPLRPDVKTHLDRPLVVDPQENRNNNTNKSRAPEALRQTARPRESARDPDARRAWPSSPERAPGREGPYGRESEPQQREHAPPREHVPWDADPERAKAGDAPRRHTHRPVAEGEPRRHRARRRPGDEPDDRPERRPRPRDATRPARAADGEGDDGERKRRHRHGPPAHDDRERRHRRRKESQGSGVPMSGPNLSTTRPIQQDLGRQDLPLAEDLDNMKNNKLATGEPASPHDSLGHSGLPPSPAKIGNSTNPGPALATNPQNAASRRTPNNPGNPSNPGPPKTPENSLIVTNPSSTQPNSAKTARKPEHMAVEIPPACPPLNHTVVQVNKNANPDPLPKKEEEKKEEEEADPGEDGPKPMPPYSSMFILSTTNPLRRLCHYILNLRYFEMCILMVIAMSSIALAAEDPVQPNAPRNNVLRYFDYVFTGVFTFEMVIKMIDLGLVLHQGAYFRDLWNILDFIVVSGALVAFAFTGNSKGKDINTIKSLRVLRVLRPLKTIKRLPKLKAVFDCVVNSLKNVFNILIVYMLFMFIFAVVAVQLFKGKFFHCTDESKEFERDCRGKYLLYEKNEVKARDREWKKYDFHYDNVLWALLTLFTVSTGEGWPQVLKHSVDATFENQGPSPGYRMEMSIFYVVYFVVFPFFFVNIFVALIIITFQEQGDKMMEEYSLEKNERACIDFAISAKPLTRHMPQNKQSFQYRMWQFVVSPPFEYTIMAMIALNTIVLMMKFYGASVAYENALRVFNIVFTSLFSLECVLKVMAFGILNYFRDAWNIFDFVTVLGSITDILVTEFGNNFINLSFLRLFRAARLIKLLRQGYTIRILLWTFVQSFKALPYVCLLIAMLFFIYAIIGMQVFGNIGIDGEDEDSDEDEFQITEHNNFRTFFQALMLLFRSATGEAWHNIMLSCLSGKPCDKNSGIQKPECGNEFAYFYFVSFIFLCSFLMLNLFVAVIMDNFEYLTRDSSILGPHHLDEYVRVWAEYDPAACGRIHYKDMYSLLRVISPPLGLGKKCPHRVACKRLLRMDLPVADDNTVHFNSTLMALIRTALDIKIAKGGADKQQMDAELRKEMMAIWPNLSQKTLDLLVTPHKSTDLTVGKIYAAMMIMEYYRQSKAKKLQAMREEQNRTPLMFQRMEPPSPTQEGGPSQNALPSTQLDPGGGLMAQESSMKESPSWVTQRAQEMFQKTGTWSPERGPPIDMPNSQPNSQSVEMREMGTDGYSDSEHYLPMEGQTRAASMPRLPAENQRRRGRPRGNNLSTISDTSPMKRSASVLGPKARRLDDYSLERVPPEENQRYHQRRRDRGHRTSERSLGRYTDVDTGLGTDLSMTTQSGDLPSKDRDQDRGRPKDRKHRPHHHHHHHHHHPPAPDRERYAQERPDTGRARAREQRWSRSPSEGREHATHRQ
T1 sequence (P54283 whole entry, further chain): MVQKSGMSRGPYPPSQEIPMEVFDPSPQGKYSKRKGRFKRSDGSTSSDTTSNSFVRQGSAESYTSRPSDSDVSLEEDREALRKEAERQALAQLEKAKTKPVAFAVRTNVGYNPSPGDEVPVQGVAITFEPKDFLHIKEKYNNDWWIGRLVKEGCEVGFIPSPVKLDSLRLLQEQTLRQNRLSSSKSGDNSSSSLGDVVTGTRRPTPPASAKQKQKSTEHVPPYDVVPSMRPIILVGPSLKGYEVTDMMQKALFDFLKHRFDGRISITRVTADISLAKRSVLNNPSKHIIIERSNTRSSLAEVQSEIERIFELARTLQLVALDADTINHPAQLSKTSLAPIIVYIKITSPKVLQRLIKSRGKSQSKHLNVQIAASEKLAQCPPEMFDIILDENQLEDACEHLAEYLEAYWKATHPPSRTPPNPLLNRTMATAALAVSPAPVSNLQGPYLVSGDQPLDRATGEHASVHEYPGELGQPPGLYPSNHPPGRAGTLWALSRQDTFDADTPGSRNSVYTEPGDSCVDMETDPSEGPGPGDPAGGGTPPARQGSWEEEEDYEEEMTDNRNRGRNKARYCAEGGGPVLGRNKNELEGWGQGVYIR

## Aβ(1-42) globulomer: soluble, globular, non-covalent association of Aβ(1-42) peptides, apparent molecular weight 38/48 kDa, obtained as in Example 6b of WO2004/067561
[1]
  spontaneous synaptic activity (frequency and amplitude) in N-dominated cells: does not impair spontaneous synaptic activity
[2]
  inhibition mechanism in hippocampal slice: also valid in situ
[3]
  amplitude of the AP (baseline to peak): 110.9±16.7 mV
  half-width time: 4.0 ± 2.9 ms
  input resistance: 131.6±13.7 MΩ
  maximal rate of repolarization: 47.4±19.3 V/s
  maximal rate of rise: 84.2±50.0 V/s
  threshold for firing: −24.2±9.8 mV
[4]
  GABA-induced inward currents: unaltered
[5]
  amplitude of P/Q-type currents: 62±7 % of control
  maximal conductance (gmax): 27.2±3.2 nS
  reversibility of P/Q-type current reduction: partially reversible
  slope Vc of steady-state activation: −10.8±0.5 mV
  slope Vc of steady-state inactivation: −12.6±1.1 mV
  steady-state activation Vh: −17.3±1.3 mV
  voltage at half-maximal inactivation: 32.4±1.2 mV
[6]
  L-type calcium current amplitude: 573.0±225.6 pA
[7]; 1 mM Ca2+, globulomer
  median amplitude of sPSCs: 97±5%
[7]; 1 mM Ca2+, globulomer approx. 1 μM monomer
  sPSC frequency: 63±7 % of control
[7]; [10]
  median amplitude of sPSCs: 98±6%
  sPSC frequency: 77±13 % of control
[8]
  amplitude of mEPSCs: 96±3 % of control
  amplitude of spontaneous EPSCs: 79±4 % of control
  amplitude of spontaneous EPSCs during washout: 96±6%
  amplitude of spontaneous IPSCs after withdrawal: 94±2%
  amplitude of synaptic currents after pre-incubation with ω-Agatoxin IVA: 102±7
  frequency of mIPSCs: 52±10 % of control
  frequency of mIPSCs after washout: 68±12 % of control
  frequency of mPSCs: 56±9 % of control
  frequency of mPSCs after washout: 77±7.6 % of control
  frequency of miniature EPSCs: 57±9 % of control
  frequency of miniature EPSCs after wash-out: 54±8%
  frequency of sPSCs after washout: 61±16%
  frequency of spontaneous EPSCs: 14±4 % of control
  frequency of spontaneous EPSCs during washout: 52±19 % of control
  frequency of spontaneously occurring IPSCs: 64±5 % of control
  frequency of synaptic currents after pre-incubation with ω-Agatoxin IVA: 108±15%
  mIPSC amplitude: 81±6 % of control
  mIPSC amplitude after washout: 85±6%
  median amplitude of mPSCs: 30.2±5.2 pA
  median amplitude of spontaneous IPSCs: 82±2 % of control
[9]
  evoked synaptic transmission: strongly suppresses synaptic transmission

## monomeric Aβ(1-42): synthetic monomeric Aβ(1-42) peptide (H-1368; Bachem) dissolved in 0.1% NaOH; likely a mixture of aggregation states
[8]; 1 μM monomer, TTX
  frequency of mPSCs: 87±3 % of control
  median amplitude of mPSCs: 33.7±3.0 pA

## ω-agatoxin IVA (KKKCIAKDYGRCKWGGTPCCRGRGCICSIMGTNCECKPRLIMEGLGLA)
[1]
  spontaneous synaptic activity (frequency and amplitude) in N-dominated cells: does not impair spontaneous synaptic activity
